{"source": "patent US20230278972A1", "about": "“SUBSTITUTED HALOALKYL SULFONANILIDE HERBICIDES” (FMC Corporation, priority 2020, published 2023)", "assay_type_in_all_cases": "in vivo", "key": {"[1]": {"tested_on": "barnyardgrass (Echinochloa crus-galli)", "assay": "Test A preemergence, barnyardgrass", "conditions": "Preemergence; for Plant response rating, Barnyardgrass: 0 to 100 scale (0 no effect, 100 complete control)", "summary_of_the_method": "(§1)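 Compounds in non-phytotoxic solvent with surfactant. Soil: loam/sand. Preemergence via directed soil spray after seeding; postemergence on seedlings 2–10 cm, one- to two-leaf.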"}, "kochia (Bassia scoparia) [2]": {"tested_on": "kochia (Bassia scoparia)", "assay": "Test A preemergence, kochia", "conditions": "Preemergence; for Plant response rating, Kochia: 0 to 100 scale (0 no effect, 100 complete control)", "summary_of_the_method": "as §1"}, "[3]": {"tested_on": "ragweed (common ragweed, Ambrosia artemisiifolia)", "assay": "Test A preemergence, ragweed", "conditions": "Preemergence; for Plant response rating, Ragweed: 0 to 100 scale (0 no effect, 100 complete control)", "summary_of_the_method": "as §1"}, "[4]": {"tested_on": "Ryegrass, Italian (Italian ryegrass, Lolium multiflorum)", "assay": "Test A preemergence, Ryegrass, Italian", "conditions": "Preemergence; for Plant response rating, Ryegrass, Italian: 0 to 100 scale (0 no effect, 100 complete control)", "summary_of_the_method": "as §1"}, "[5]": {"tested_on": "Foxtail, Giant (giant foxtail, Setaria faberi)", "assay": "Test A preemergence, Foxtail, Giant", "conditions": "Preemergence; for Plant response rating, Foxtail, Giant: 0 to 100 scale (0 no effect, 100 complete control)", "summary_of_the_method": "as §1"}, "[6]": {"tested_on": "pigweed (Amaranthus retroflexus)", "assay": "Test A preemergence, pigweed", "conditions": "for Plant response rating, Pigweed: 0 to 100 scale (0 no effect, 100 complete control)", "summary_of_the_method": "(§2)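 Greenhouse pot test in a loam–sand blend; compounds delivered in a non-phytotoxic solvent carrying a surfactant, applied either as a directed spray to soil at seeding or over seedlings 2 to 10 cm high with one to two leaves.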"}, "[7]": {"tested_on": "barnyardgrass (Echinochloa crus-galli)", "assay": "Test A postemergence, barnyardgrass", "conditions": "Postemergence, 0 to 100 scale (0 no effect, 100 complete control)", "summary_of_the_method": "as §2"}, "kochia (Bassia scoparia) [8]": {"tested_on": "kochia (Bassia scoparia)", "assay": "Test A postemergence, kochia", "conditions": "Postemergence, 0 to 100 scale (0 no effect, 100 complete control)", "summary_of_the_method": "as §1"}, "[9]": {"tested_on": "ragweed (common ragweed, Ambrosia artemisiifolia)", "assay": "Test A postemergence, ragweed", "conditions": "Postemergence, 0 to 100 scale (0 no effect, 100 complete control)", "summary_of_the_method": "as §1"}, "[10]": {"tested_on": "Ryegrass, Italian (Italian ryegrass, Lolium multiflorum)", "assay": "Test A postemergence, Ryegrass, Italian", "conditions": "Postemergence, 0 to 100 scale (0 no effect, 100 complete control)", "summary_of_the_method": "as §1"}, "[11]": {"tested_on": "Foxtail, Giant (giant foxtail, Setaria faberi)", "assay": "Test A postemergence, Foxtail, Giant", "conditions": "Postemergence, 0 to 100 scale (0 no effect, 100 complete control)", "summary_of_the_method": "as §1"}, "[12]": {"tested_on": "pigweed (Amaranthus retroflexus)", "assay": "Test A postemergence, pigweed", "conditions": "Postemergence, 0 to 100 scale (0 no effect, 100 complete control)", "summary_of_the_method": "as §1"}, "[13]": {"tested_on": "wheat (Triticum aestivum)", "assay": "Test A postemergence, wheat", "conditions": "Postemergence, 0 to 100 scale (0 no effect, 100 complete control)", "summary_of_the_method": "as §2"}, "corn (Zea mays)": {"tested_on": "corn (Zea mays)", "assay": "Test A postemergence, corn", "conditions": "Postemergence, 0 to 100 scale (0 no effect, 100 complete control)", "summary_of_the_method": "as §1"}, "[14]": {"tested_on": "blackgrass (Alopecurus myosuroides)", "assay": "Test A postemergence, blackgrass", "conditions": "Postemergence, 0 to 100 scale (0 no effect, 100 complete control)", "summary_of_the_method": "as §1"}, "[15]": {"tested_on": "galium (catchweed bedstraw, Galium aparine)", "assay": "Test A postemergence, galium", "conditions": "Postemergence, 0 to 100 scale (0 no effect, 100 complete control)", "summary_of_the_method": "as §2"}, "[16]": {"conditions": "125 g ai/ha, visual injury, approx. 10 days"}, "[17]": {"conditions": "500 g ai/ha, visual injury vs untreated controls after approx. 10 days"}, "[18]": {"conditions": "125 g ai/ha, visual injury on 0 to 100 scale (0 no effect, 100 complete control), approximately 10 days"}, "[19]": {"conditions": "125 g ai/ha, visual injury approx. 10 days"}, "[20]": {"conditions": "500 g ai/ha, visual injury, approx. 10 days"}}}
{"smiles": "C#CCN(C)C(=O)c1cc(NS(=O)(=O)C(F)(F)F)c(C)cc1C", "note": "[Compound 189]", "values": [{"measurement": "Plant response rating, Barnyardgrass", "setting": "[1]; [16]", "value": 80}, {"measurement": "Plant response rating, Barnyardgrass", "setting": "[1]; 500 g ai/ha", "value": 100}, {"measurement": "Plant response rating, Kochia", "setting": "kochia (Bassia scoparia) [2]; [16]", "value": 80}, {"measurement": "Plant response rating, Kochia", "setting": "kochia (Bassia scoparia) [2]; 500 g ai/ha", "value": 100}, {"measurement": "Plant response rating, Ragweed", "setting": "[3]; [16]", "value": 80}, {"measurement": "Plant response rating, Ragweed", "setting": "[3]; 500 g ai/ha", "value": 90}, {"measurement": "Plant response rating, Ryegrass, Italian", "setting": "[4]; [16]", "value": 90}, {"measurement": "Plant response rating, Ryegrass, Italian", "setting": "[4]; 500 g ai/ha", "value": 100}, {"measurement": "Plant response rating, Foxtail, Giant", "setting": "[5]; [16]", "value": 100}, {"measurement": "Plant response rating, Foxtail, Giant", "setting": "[5]; 500 g ai/ha", "value": 100}, {"measurement": "Plant response rating, Pigweed", "setting": "[6]; [16]", "value": 90}, {"measurement": "Plant response rating, Pigweed", "setting": "[6]; 500 g ai/ha", "value": 100}, {"measurement": "Plant response rating, Barnyardgrass", "setting": "[7]; 125 g ai/ha", "value": 80}, {"measurement": "Barnyardgrass plant response rating", "setting": "[7]; [17]", "value": 90}, {"measurement": "Plant response rating, Kochia", "setting": "kochia (Bassia scoparia) [8]; 125 g ai/ha", "value": 20}, {"measurement": "Kochia plant response rating", "setting": "kochia (Bassia scoparia) [8]; [17]", "value": 80}, {"measurement": "Plant response rating, Ragweed", "setting": "[9]; 125 g ai/ha", "value": 90}, {"measurement": "Ragweed plant response rating", "setting": "[9]; [17]", "value": 90}, {"measurement": "Plant response rating, Ryegrass, Italian", "setting": "[10]; 125 g ai/ha", "value": 80}, {"measurement": "Ryegrass, Italian plant response rating", "setting": "[10]; [17]", "value": 80}, {"measurement": "Plant response rating, Foxtail, Giant", "setting": "[11]; 125 g ai/ha", "value": 60}, {"measurement": "Foxtail, Giant plant response rating", "setting": "[11]; [17]", "value": 90}, {"measurement": "Plant response rating, Pigweed", "setting": "[12]; 125 g ai/ha", "value": 60}, {"measurement": "Pigweed plant response rating", "setting": "[12]; [17]", "value": 90}, {"measurement": "Plant response rating, Wheat", "setting": "[13]; 125 g ai/ha", "value": 50}, {"measurement": "Wheat plant response rating", "setting": "[13]; [17]", "value": 70}, {"measurement": "Plant response rating, Corn", "setting": "corn (Zea mays); 125 g ai/ha", "value": 20}, {"measurement": "Corn plant response rating", "setting": "corn (Zea mays); [17]", "value": 80}, {"measurement": "Plant response rating, Blackgrass", "setting": "[14]; 125 g ai/ha", "value": 30}, {"measurement": "Blackgrass plant response rating", "setting": "[14]; [17]", "value": 20}, {"measurement": "Plant response rating, Galium", "setting": "[15]; 125 g ai/ha", "value": 90}, {"measurement": "Galium plant response rating", "setting": "[15]; [17]", "value": 90}]}
{"smiles": "Cc1cc(Cl)c(N(S(=O)(=O)C(F)(F)F)S(=O)(=O)C(F)(F)F)cc1-c1cn(C)c(=O)n(C)c1=O", "note": "[Compound 38]", "values": [{"measurement": "Barnyardgrass plant response rating", "setting": "[1]; [18]", "value": 90}, {"measurement": "Plant response rating, Barnyardgrass", "setting": "[1]; 500 g ai/ha", "value": 100}, {"measurement": "Kochia plant response rating", "setting": "kochia (Bassia scoparia) [2]; [18]", "value": 80}, {"measurement": "Plant response rating, Kochia", "setting": "kochia (Bassia scoparia) [2]; 500 g ai/ha", "value": 90}, {"measurement": "Ragweed plant response rating", "setting": "[3]; [18]", "value": 70}, {"measurement": "Plant response rating, Ragweed", "setting": "[3]; 500 g ai/ha", "value": 90}, {"measurement": "Ryegrass, Italian plant response rating", "setting": "[4]; [18]", "value": 100}, {"measurement": "Plant response rating, Ryegrass, Italian", "setting": "[4]; 500 g ai/ha", "value": 100}, {"measurement": "Foxtail, Giant plant response rating", "setting": "[5]; [18]", "value": 100}, {"measurement": "Plant response rating, Foxtail, Giant", "setting": "[5]; 500 g ai/ha", "value": 100}, {"measurement": "Pigweed plant response rating", "setting": "[6]; [18]", "value": 40}, {"measurement": "Plant response rating, Pigweed", "setting": "[6]; 500 g ai/ha", "value": 80}, {"measurement": "Plant response rating, Barnyardgrass", "setting": "[7]; [19]", "value": 60}, {"measurement": "Plant response rating, Barnyardgrass", "setting": "[7]; [20]", "value": 80}, {"measurement": "Plant response rating, Kochia", "setting": "kochia (Bassia scoparia) [8]; [19]", "value": 60}, {"measurement": "Plant response rating, Kochia", "setting": "kochia (Bassia scoparia) [8]; [20]", "value": 70}, {"measurement": "Plant response rating, Ragweed", "setting": "[9]; [19]", "value": 80}, {"measurement": "Plant response rating, Ragweed", "setting": "[9]; [20]", "value": 90}, {"measurement": "Plant response rating, Ryegrass, Italian", "setting": "[10]; [19]", "value": 60}, {"measurement": "Plant response rating, Ryegrass, Italian", "setting": "[10]; [20]", "value": 80}, {"measurement": "Plant response rating, Foxtail, Giant", "setting": "[11]; [19]", "value": 90}, {"measurement": "Plant response rating, Foxtail, Giant", "setting": "[11]; [20]", "value": 90}, {"measurement": "Plant response rating, Pigweed", "setting": "[12]; [19]", "value": 70}, {"measurement": "Plant response rating, Pigweed", "setting": "[12]; [20]", "value": 90}, {"measurement": "Plant response rating, Wheat", "setting": "[13]; [19]", "value": 70}, {"measurement": "Plant response rating, Wheat", "setting": "[13]; [20]", "value": 70}, {"measurement": "Plant response rating, Corn", "setting": "corn (Zea mays); [19]", "value": 20}, {"measurement": "Plant response rating, Corn", "setting": "corn (Zea mays); [20]", "value": 70}, {"measurement": "Plant response rating, Blackgrass", "setting": "[14]; [19]", "value": 80}, {"measurement": "Plant response rating, Blackgrass", "setting": "[14]; [20]", "value": 90}, {"measurement": "Plant response rating, Galium", "setting": "[15]; [19]", "value": 80}, {"measurement": "Plant response rating, Galium", "setting": "[15]; [20]", "value": 90}]}
